Active and inactive are the calls of the source. The rule behind the calls is not given here.
Tests used:
[1] = biological target: T1, Potassium voltage-gated channel subfamily A member 5 (Homo sapiens, UniProt P22460); test: Inhibition of Kv1.5 expressed in LTK- cells by whole cell patch clamp assay at 1uM; assay type: functional, cell-based
[2] = biological target: T1, Potassium voltage-gated channel subfamily A member 5; test: Inhibition of Kv1.5 expressed in LTK- cells by whole cell patch clamp assay; assay type: functional, cell-based
[3] = tested on: Sus scrofa; test: Prolonged right atrial refractory period in pigs after 15 minute iv infusion at 30mg/kg; assay type: functional, Cardiac atrium
[4] = tested on: Sus scrofa; test: Prolonged ventricular refractory period in pigs after 15 minute iv infusion at 30mg/kg; assay type: functional, organism-based; conditions: Cardiac ventricle
[5] = biological target: Voltage-gated L-type calcium channel (Homo sapiens, UniProt Q13936+Q13698+Q01668+O60840); test: Inhibition of L-type calcium channel by FLIPR assay; assay type: functional
[6] = tested on: Sus scrofa; test: Prolonged right atrial refractory period in pigs after 15 minute iv infusion at 10mg/kg; assay type: functional, Cardiac atrium
[7] = tested on: Sus scrofa; test: Prolonged ventricular refractory period in pigs after 15 minute iv infusion at 10mg/kg; assay type: functional, organism-based; conditions: Cardiac ventricle

T1 sequence (P22460 whole entry): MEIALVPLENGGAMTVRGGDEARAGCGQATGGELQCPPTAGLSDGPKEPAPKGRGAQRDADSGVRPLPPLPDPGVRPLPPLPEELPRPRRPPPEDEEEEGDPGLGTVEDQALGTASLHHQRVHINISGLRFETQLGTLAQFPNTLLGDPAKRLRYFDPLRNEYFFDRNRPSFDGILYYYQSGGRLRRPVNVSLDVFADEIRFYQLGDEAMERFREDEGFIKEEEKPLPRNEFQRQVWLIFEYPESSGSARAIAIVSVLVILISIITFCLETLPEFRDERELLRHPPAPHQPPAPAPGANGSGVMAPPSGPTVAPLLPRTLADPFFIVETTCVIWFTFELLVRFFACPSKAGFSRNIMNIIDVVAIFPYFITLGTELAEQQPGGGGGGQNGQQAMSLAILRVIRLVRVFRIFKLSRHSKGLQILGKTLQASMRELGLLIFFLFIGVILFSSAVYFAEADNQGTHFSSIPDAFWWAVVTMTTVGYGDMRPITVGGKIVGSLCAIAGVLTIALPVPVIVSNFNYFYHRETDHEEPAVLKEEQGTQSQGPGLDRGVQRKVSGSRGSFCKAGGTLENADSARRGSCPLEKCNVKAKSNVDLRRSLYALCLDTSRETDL

Cc1[nH]c2c(c1C)/C(=N/NC(=O)Nc1ccc(Cl)cc1)CCC2
inhibition [1]: 67%
IC50 [2]: 370 nM

CCc1[nH]c2c(c1CC)/C(=N/NC(=O)Nc1ccc(Cl)cc1)CCC2
inhibition [1]: 60%

CCc1c(C)[nH]c2c1/C(=N/NC(=O)Nc1ccc(SC)cc1)CCC2
inhibition [1]: 80%
IC50 [2]: 280 nM

CCc1[nH]c2c(c1CC)/C(=N/NC(=O)Nc1ccc(OC)cc1)CCC2
inhibition [1]: 85%

CCc1c(C)[nH]c2c1/C(=N/NC(=O)Nc1cccc(C3CCCN3)c1)CCC2 (stereo not given)
inhibition [1]: 60%
IC50 [2]: 750 nM

CCc1c(C)[nH]c2c1/C(=N/NC(=O)Nc1ccc(Cl)cc1)CCC2
inhibition [1]: 65%
IC50 [2]: 440 nM

CCc1c(C)[nH]c2c1/C(=N/N(C)C(=O)Nc1ccccc1)CCC2
inhibition [1]: 65%

O=C(N/N=C1\CCCc2[nH]ccc21)Nc1ccccc1
inhibition [1]: inactive

CCc1c(C)[nH]c2c1/C(=N/NC(=S)Nc1cccc(C(F)(F)F)c1)CCC2
inhibition [1]: 91%
IC50 [2]: 200 nM

CCc1c(C)[nH]c2c1/C(=N/N(C)C(=O)Nc1ccc(Cl)cc1)CCC2
Prolonged ARP [3]: 18%
inhibition [1]: 93%
Prolonged VRP [4]: inactive
IC50 [2]: 130 nM

CCc1c(C)[nH]c2c1/C(=N/N(C)C(=O)Nc1ccc(SC)cc1)CCC2
inhibition [1]: 78%

CCc1[nH]c2c(c1CC)/C(=N/NC(=O)Nc1cccc(SC)c1)CCC2
inhibition [1]: 67%

Cc1[nH]c2c(c1C(C)C)/C(=N/NC(=O)Nc1ccccc1)CCC2
inhibition [1]: inactive

CCc1c2c(n(C)c1CC)CCC/C2=N\N(C)C(=O)Nc1ccc(C(C)=O)cc1
inhibition [1]: 90%
IC50 [2]: 370 nM

CCc1c(C)[nH]c2c1/C(=N/NC(=S)Nc1ccc(C(F)(F)F)cc1)CCC2
inhibition [1]: 52%

CCc1c(C)[nH]c2c1/C(=N/N(C)C(=O)Nc1cccc(Cl)c1)CCC2
inhibition [1]: 89%

CCc1c(C)[nH]c2c1/C(=N/NC(=S)Nc1ccc(Cl)cc1)CCC2
inhibition [1]: 71%

CCc1c(C)[nH]c2c1/C(=N/N(C)C(=O)Nc1ccc(C(C)=O)cc1)CCC2
inhibition [1]: 86%

CCc1c(C)[nH]c2c1/C(=N/NC(=O)Nc1ccc(C)cc1)CCC2
inhibition [1]: 50%

CCc1c(C)[nH]c2c1/C(=N/NC(=S)Nc1cccc(Cl)c1)CCC2
inhibition [1]: 78%

CCc1[nH]c2c(c1CC)/C(=N/NC(=O)Nc1ccccc1)CCC2
inhibition [1]: 56%

Cc1[nH]c2c(c1C)/C(=N/NC(=O)Nc1ccc(C(F)(F)F)cc1)CCC2
inhibition [1]: 63%

O=C(N/N=C1\CCCC2=C1C1CCCCC1N2)Nc1ccccc1 (stereo not given)
inhibition [1]: 20%

CCc1c(C)[nH]c2c1/C(=N/NC(=O)Nc1ccccc1)CCC2
IC50 [5]: > 30000 nM
Prolonged ARP [6]: 28%
inhibition [1]: 85%
IC50 [2]: 130 nM
Prolonged VRP [7]: inactive

CCc1c2c(n(C)c1CC)CCC/C2=N\N(C)C(=O)Nc1ccccc1
inhibition [1]: 84%

Cc1[nH]c2c(c1C)/C(=N/NC(=O)Nc1ccccc1)CCC2
inhibition [1]: 37%

CCc1[nH]c2c(c1CC)/C(=N/NC(=O)Nc1ccc(SC)cc1)CCC2
inhibition [1]: 56%

O=C(N/N=C1\CCCc2[nH]ccc21)Nc1ccc(Cl)cc1
inhibition [1]: 28%
IC50 [2]: 5600 nM

Cc1[nH]c2c(c1C(C)C)/C(=N/NC(=O)Nc1ccc(Cl)cc1)CCC2
inhibition [1]: inactive

CCc1c2c(n(C)c1CC)CCC/C2=N\N(C)C(=O)Nc1ccc(Cl)cc1
inhibition [1]: 90%

CCc1c(C)[nH]c2c1/C(=N/NC(=S)Nc1cccc(C)c1)CCC2
inhibition [1]: 64%

From ChEMBL document CHEMBL1137272, “Discovery and synthesis of tetrahydroindolone derived semicarbazones as selective Kv1.5 blockers” (Bioorg Med Chem Lett, 2006)
